Data from patent US8148387B2, “AKT and P70 S6 kinase inhibitors” (Eli Lilly and Company, priority 2008, dated 2012).

Assays:
p70 S6 Kinase = target: T1, p70 S6 Kinase (Homo sapiens, UniProt P23443, T412E); assay: p70 S6 Kinase In Vitro Enzyme Assay (Transcreener Kinase ADP-FP); format: biochemical; settings: 25 micromolar ATP; read-out: IC50 against p70 S6 Kinase
T1 construct: amino acids 1-421, T412E; His tag (N)
Method: Compound IC50 values against p70 S6 Kinase target are determined using the p70 S6 Transcreener™ Kinase ADP-FP Assay. This assay assesses the activity of p70 S6 kinase in the presence of compound inhibitors by measuring the concentration of adenosine diphosphate (ADP) formed in a kinase reaction. The kinase reactions (25 μL reaction volumes) are performed in 96-well half-area black polystyrene plates. Adenosine triphosphate (ATP) is added to start the reactions. Final reaction conditions are 10 millimolar N-2-hydroxyethyl-piperazine-N′-2-ethanesulfonic acid (HEPES) pH 7.5, 0.005% TRITON™ X-100, 0.082 millimolar ethyleneglycol tetraacetic acid (EGTA), 1 millimolar dithiothreitol, 10 millimolar magnesium chloride, 4 micromolar substrate peptide, 25 micromolar ATP, active p70 S6 Kinase (Human recombinant, amino acids 1-421, T412E, N-terminal histidine-tagged), 4% DMSO and serial dilutions of compound (diluted 1:3 from 20,000 to 1 nanomolar). […] Quenched reactions are incubated for 4-16 hours, and then read in a Tecan Ultra Evolution plate reader in Fluorescence Polarization mode using polarizing filters of Ex612nm and Em633nm wavelength. […] The IC50 value for each compound is derived using percent inhibition data which is calculated using the micromolar ADP reaction data relative to on-plate controls (active enzyme versus 100 millimolar inhibited enzyme controls). […]

[1] = system: phosphorylated S6 ribosomal protein serine 240/244 (pS6); assay: AlphaScreen SureFire detection of pS6 in U87MG cells; format: cell-based; settings: Homo sapiens, U-87 MG, 1 hour
Method: The effect of compounds on the formation of endogenous phosphorylated S6 ribosomal protein serine 240/244 (pS6) and phosphorylated GSK3β serine 9 (pGSK3β) are measured using the AlphaScreen SureFire® for either pS6 (TGR Biosciences, TGRS6P2S10K) or pGSK3β(TGRGBS10K). This is a homogeneous assay format using immuno-sandwich capture of the phosphorylated analyte followed by detection using antibody-coated Alphascreen beads to generate an amplified signal.
U87MG cells are maintained in U87MG growth medium consisting of DMEM supplemented with 10% Fetal bovine serum (FBS), 1% Nonessential amino acids and 1% sodium pyruvate. For the assay, cells are harvested by standard procedures and then counted using Vi-Cell. Cells (50,000/well) are plated in 100 μL of U87MG growth medium into Costar #3596 96 well plates. […]
On the day of the assay, cells are treated with 20 μL/well compound diluted in media containing 6% DMSO. […] The plate is sealed with foil, incubated at RT for 4 hours with gentle shaking and then read on Perkin Elmer EnVision equipped with a TurboModule using standard AlphaScreen® settings (Ex680nm and Em520-620nm). The percent inhibition determined from controls on each plate and ten-point compound concentration data are then fit to a four-parameter logistic equation using ACTIVITYBASE 4.0 (Assay Guidance Manual Version 5.0, 2008, Eli Lilly and Company and NIH Chemical Genomics Center).

T1 sequence (P23443 1-421 T412E): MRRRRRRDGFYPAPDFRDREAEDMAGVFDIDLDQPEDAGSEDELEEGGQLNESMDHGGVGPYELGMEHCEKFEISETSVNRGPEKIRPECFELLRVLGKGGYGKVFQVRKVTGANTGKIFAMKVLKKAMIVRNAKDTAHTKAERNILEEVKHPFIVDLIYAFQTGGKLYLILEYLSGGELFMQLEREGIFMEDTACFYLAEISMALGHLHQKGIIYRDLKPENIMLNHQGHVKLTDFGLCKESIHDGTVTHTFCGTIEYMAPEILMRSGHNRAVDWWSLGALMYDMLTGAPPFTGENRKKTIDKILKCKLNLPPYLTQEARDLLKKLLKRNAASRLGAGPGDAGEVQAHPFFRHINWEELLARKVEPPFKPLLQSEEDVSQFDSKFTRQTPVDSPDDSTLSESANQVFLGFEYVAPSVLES

- IC50 (p70 S6 Kinase): 7 nM
- IC50 [1]: 65 nM
SMILES: CN(C)CCn1cc(-c2ccc(F)c(C(F)(F)F)c2)nc1C1CCN(c2ncnc3c2C(C)(C)C(=O)N3)CC1 [Example 31]
